Laboratory results reported in PubChem BioAssay (NCI).
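These data come from cells grown in 96-well plates and exposed to compound for 48 hours at five concentrations. GI50: concentration for 50% inhibition of growth. TGI: total growth inhibition.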

Tests used:
Experiment in all cases: growth of human tumour cells (NCI), 48 h
786-0 renal = tested on: 786-0 renal
A498 renal = tested on: A498 renal
A549 NSCLC = tested on: A549 NSCLC
ACHN renal = tested on: ACHN renal
BT-549 breast = tested on: BT-549 breast
CAKI-1 renal = tested on: CAKI-1 renal
CCRF-CEM leukemia = tested on: CCRF-CEM leukemia
COLO 205 colon = tested on: COLO 205 colon
DU-145 prostate = tested on: DU-145 prostate
EKVX NSCLC = tested on: EKVX NSCLC
HCC-2998 colon = tested on: HCC-2998 colon
HCT-116 colon = tested on: HCT-116 colon
HCT-15 colon = tested on: HCT-15 colon
HL-60(TB) leukemia = tested on: HL-60(TB) leukemia
HOP-62 NSCLC = tested on: HOP-62 NSCLC
HOP-92 NSCLC = tested on: HOP-92 NSCLC
HS 578T breast = tested on: HS 578T breast
HT29 colon = tested on: HT29 colon
IGROV1 ovarian = tested on: IGROV1 ovarian
K-562 leukemia = tested on: K-562 leukemia
KM12 colon = tested on: KM12 colon
LOX IMVI melanoma = tested on: LOX IMVI melanoma
M14 melanoma = tested on: M14 melanoma
MALME-3M melanoma = tested on: MALME-3M melanoma
MCF7 breast = tested on: MCF7 breast
MDA-MB-231 breast = tested on: MDA-MB-231 breast
MDA-MB-435 = tested on: MDA-MB-435
MDA-MB-468 breast = tested on: MDA-MB-468 breast
MOLT-4 leukemia = tested on: MOLT-4 leukemia
NCI-H226 lung = tested on: NCI-H226 lung
NCI-H23 lung = tested on: NCI-H23 lung
NCI-H460 lung = tested on: NCI-H460 lung
NCI-H522 lung = tested on: NCI-H522 lung
NCI/ADR-RES ovarian = tested on: NCI/ADR-RES ovarian
OVCAR-3 ovarian = tested on: OVCAR-3 ovarian
OVCAR-4 ovarian = tested on: OVCAR-4 ovarian
OVCAR-5 ovarian = tested on: OVCAR-5 ovarian
OVCAR-8 ovarian = tested on: OVCAR-8 ovarian
PC-3 prostate = tested on: PC-3 prostate
RPMI-8226 leukemia = tested on: RPMI-8226 leukemia
RXF 393 renal = tested on: RXF 393 renal
SF-268 CNS = tested on: SF-268 CNS
SF-295 CNS = tested on: SF-295 CNS
SF-539 CNS = tested on: SF-539 CNS
SK-MEL-2 melanoma = tested on: SK-MEL-2 melanoma
SK-MEL-28 melanoma = tested on: SK-MEL-28 melanoma
SK-MEL-5 melanoma = tested on: SK-MEL-5 melanoma
SK-OV-3 ovarian = tested on: SK-OV-3 ovarian
SN12C renal = tested on: SN12C renal
SNB-19 CNS = tested on: SNB-19 CNS
SNB-75 CNS = tested on: SNB-75 CNS
SR leukemia = tested on: SR leukemia
SW-620 colon = tested on: SW-620 colon
T-47D breast = tested on: T-47D breast
TK-10 renal = tested on: TK-10 renal
U251 CNS = tested on: U251 CNS
UACC-257 melanoma = tested on: UACC-257 melanoma
UACC-62 melanoma = tested on: UACC-62 melanoma
UO-31 renal = tested on: UO-31 renal

## COc1ccc(NC(=O)N/N=C/c2c[nH]c3ccccc23)cc1
786-0 renal
  GI50: 1520 nM
  TGI: 28.1 µM
A498 renal
  GI50: > 40.7 µM
  TGI: > 88.3 µM
A549 NSCLC
  GI50: 815 nM
  TGI: > 100 µM
ACHN renal
  GI50: 1740 nM
  TGI: > 100 µM
BT-549 breast
  GI50: 670 nM
  TGI: > 62.8 µM
CAKI-1 renal
  GI50: 678 nM
  TGI: > 100 µM
CCRF-CEM leukemia
  GI50: 379 nM
  TGI: 17.6 µM
COLO 205 colon
  GI50: 586 nM
  TGI: 3.12 µM
DU-145 prostate
  GI50: 2050 nM
  TGI: > 64.1 µM
EKVX NSCLC
  GI50: 3.41 µM
  TGI: > 100 µM
HCC-2998 colon
  GI50: 1910 nM
  TGI: 24.1 µM
HCT-116 colon
  GI50: 389 nM
  TGI: 22.6 µM
HCT-15 colon
  GI50: 384 nM
  TGI: > 52.7 µM
HL-60(TB) leukemia
  GI50: 279 nM
  TGI: 1530 nM
HOP-62 NSCLC
  GI50: 724 nM
  TGI: > 100 µM
HOP-92 NSCLC
  GI50: 2290 nM
  TGI: 38.3 µM
HS 578T breast
  GI50: 1130 nM
  TGI: > 100 µM
HT29 colon
  GI50: 357 nM
  TGI: 5.01 µM
IGROV1 ovarian
  GI50: 646 nM
  TGI: > 100 µM
K-562 leukemia
  GI50: 235 nM
  TGI: > 77.1 µM
KM12 colon
  GI50: 448 nM
  TGI: > 54.5 µM
LOX IMVI melanoma
  GI50: 615 nM
  TGI: > 46.6 µM
M14 melanoma
  GI50: 340 nM
  TGI: > 100 µM
MALME-3M melanoma
  GI50: 547 nM
  TGI: > 100 µM
MCF7 breast
  GI50: 610 nM
  TGI: > 100 µM
MDA-MB-231 breast
  GI50: 1010 nM
  TGI: 56 µM
MDA-MB-435
  GI50: 255 nM
  TGI: 1890 nM
MDA-MB-468 breast
  GI50: 911 nM
  TGI: 4.4 µM
MOLT-4 leukemia
  GI50: 502 nM
  TGI: 50.7 µM
NCI-H226 lung
  GI50: 11 µM
  TGI: > 100 µM
NCI-H23 lung
  GI50: 2140 nM
  TGI: > 51.7 µM
NCI-H460 lung
  GI50: 579 nM
  TGI: 26.3 µM
NCI-H522 lung
  GI50: 249 nM
  TGI: 879 nM
NCI/ADR-RES ovarian
  GI50: 308 nM
  TGI: 1440 nM
OVCAR-3 ovarian
  GI50: 380 nM
  TGI: 2810 nM
OVCAR-4 ovarian
  TGI: > 100 µM
OVCAR-5 ovarian
  GI50: 2000 nM
  TGI: > 83.7 µM
OVCAR-8 ovarian
  GI50: 801 nM
  TGI: 24.6 µM
PC-3 prostate
  GI50: 1650 nM
  TGI: > 100 µM
RPMI-8226 leukemia
  GI50: 1090 nM
  TGI: 15.3 µM
RXF 393 renal
  GI50: 1000 nM
  TGI: 11.3 µM
SF-268 CNS
  GI50: 5.44 µM
  TGI: > 81.4 µM
SF-295 CNS
  GI50: 458 nM
  TGI: > 32.7 µM
SF-539 CNS
  GI50: 391 nM
  TGI: 2200 nM
SK-MEL-2 melanoma
  GI50: 294 nM
  TGI: 28.8 µM
SK-MEL-28 melanoma
  GI50: 3.31 µM
  TGI: > 100 µM
SK-MEL-5 melanoma
  GI50: 524 nM
  TGI: 5.18 µM
SK-OV-3 ovarian
  GI50: 1980 nM
  TGI: > 100 µM
SN12C renal
  GI50: 1030 nM
  TGI: > 56.7 µM
SNB-19 CNS
  GI50: 1830 nM
  TGI: > 100 µM
SNB-75 CNS
  GI50: 1410 nM
  TGI: 12.1 µM
SR leukemia
  GI50: 250 nM
  TGI: > 53.4 µM
SW-620 colon
  GI50: 517 nM
  TGI: > 100 µM
T-47D breast
  GI50: 1310 nM
  TGI: > 100 µM
TK-10 renal
  GI50: 7.83 µM
  TGI: 98.2 µM
U251 CNS
  GI50: 431 nM
  TGI: > 89.1 µM
UACC-257 melanoma
  GI50: > 100 µM
  TGI: > 100 µM
UACC-62 melanoma
  GI50: 364 nM
  TGI: > 47.3 µM
UO-31 renal
  GI50: 1870 nM
  TGI: > 100 µM
